These results are taken from patent US20230257365A1, “SMALL MOLECULE ANDROGEN RECEPTOR PROTEIN DEGRADERS” (THE REGENTS OF THE UNIVERSITY OF MICHIGAN, priority 2020, published 2023).

The target of this assay is T1, AR protein (Homo sapiens, UniProt P10275).
T1 construct: endogenous in cells; host or cells: VCaP
T1 sequence (P10275 1-920): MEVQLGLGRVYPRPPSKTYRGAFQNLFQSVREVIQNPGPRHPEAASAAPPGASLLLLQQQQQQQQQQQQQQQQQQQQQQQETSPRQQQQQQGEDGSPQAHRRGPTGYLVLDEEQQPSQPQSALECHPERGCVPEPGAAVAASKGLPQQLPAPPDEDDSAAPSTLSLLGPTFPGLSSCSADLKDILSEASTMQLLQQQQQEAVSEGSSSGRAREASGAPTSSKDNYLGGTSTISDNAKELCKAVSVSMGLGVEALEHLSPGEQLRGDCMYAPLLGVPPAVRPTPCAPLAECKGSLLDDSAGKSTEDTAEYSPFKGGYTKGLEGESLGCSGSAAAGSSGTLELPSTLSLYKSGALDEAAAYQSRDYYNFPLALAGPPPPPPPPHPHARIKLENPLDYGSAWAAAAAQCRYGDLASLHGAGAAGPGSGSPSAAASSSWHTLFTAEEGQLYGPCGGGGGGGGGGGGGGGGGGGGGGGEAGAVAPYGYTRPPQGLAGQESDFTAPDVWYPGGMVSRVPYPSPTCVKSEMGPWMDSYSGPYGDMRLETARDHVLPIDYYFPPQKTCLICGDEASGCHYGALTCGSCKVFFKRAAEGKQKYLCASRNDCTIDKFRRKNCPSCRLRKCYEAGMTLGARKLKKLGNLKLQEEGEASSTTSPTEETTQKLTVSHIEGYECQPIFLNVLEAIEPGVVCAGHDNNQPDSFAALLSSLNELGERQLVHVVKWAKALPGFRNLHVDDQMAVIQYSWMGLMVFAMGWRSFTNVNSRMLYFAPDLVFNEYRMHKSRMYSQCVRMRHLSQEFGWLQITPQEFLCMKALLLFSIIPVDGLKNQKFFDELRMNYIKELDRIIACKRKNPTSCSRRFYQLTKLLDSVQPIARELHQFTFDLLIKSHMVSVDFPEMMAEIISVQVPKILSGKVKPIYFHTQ
The assay can be described thus: AR protein degradation by western blotting in VCaP cells. The format is cell-based. On the procedure: The appropriate cell line, e.g., prostate cancer LNCaP, Vcap, or MDA-MB-453, cell line, was treated with Compounds of the Disclosure. The treated cells were lysed with RIPA buffer. The AR level in the cell lysates was examined by western blotting and a specific AR antibody (ab 194196, Abeam, Cambridge, Mass. 02139) with concentration of 1:20,000. GAPDH was used as a loading control.
Bands were quantified with ImageJ software. The relative numbers of each band obtained from normalization with its corresponding GAPDH level were compared with Prism 8 software. The DC50 values were produced from Prism 8, and the DC90 values were calculated with an equation=Bottom+(Top−Bottom)/(1+10^((Log EC50−X)*HillSlope) based on DC50 and Hillslope values.
The amount of AR protein degradation in LNCap, VCap, and MDA-MB-453 cells caused representative Compounds of the Disclosure at the concentrations indicated is presented in Table 4.
A general note: Immunoblotting shows a protein as a band on a membrane.

For the compound `N#Cc1ccc(OC2CCN(C(=O)c3ccc(N4CCC(N5CCN(c6ccc7c(c6)C(=O)N(C6CCC(=O)NC6=O)C7=O)CC5)CC4)cc3)CC2)cc1Cl` (stereo not drawn) [compound 336, 2-chloro-4-((1-(4-(4-(4-(2-(2,6-dioxopiperidin-3-yl)-1,3-dioxoisoindolin-5-yl)piperazin-1-yl)piperidin-1-yl)benzoyl)piperidin-4-yl)oxy)benzonitrile], the “% AR protein degradation in VCaP Cells” value reads like this: (0.001 μM) 3%; (0.01 μM) −5%; (0.1 μM) −5%; (1 μM) 4%.
Take `N#Cc1ccc(OC2CCCN(C(=O)c3ccc(N4CCC(N5CCN(c6ccc7c(c6)C(=O)N(C6CCC(=O)NC6=O)C7=O)CC5)CC4)cc3)CC2)cc1Cl` (stereo not drawn) [compound 337, 2-chloro-4-((1-(4-(4-(4-(2-(2,6-dioxopiperidin-3-yl)-1,3-dioxoisoindolin-5-yl)piperazin-1-yl)piperidin-1-yl)benzoyl)azepan-4-yl)oxy)benzonitrile]: the “% AR protein degradation in VCaP Cells” value runs as follows: (0.001 μM) 18%; (0.01 μM) 12%; (0.1 μM) 9%; (1 μM) 29%.
For `N#Cc1ccc(-c2ccn(Cc3ccc(C(=O)N4CCN(C5CCN(c6ccc7c(c6)C(=O)N(C6CCC(=O)NC6=O)C7=O)CC5)CC4)cc3)n2)cc1Cl` (stereo not drawn) [compound 338, 2-chloro-4-(1-(4-(4-(1-(2-(2,6-dioxopiperidin-3-yl)-1,3-dioxoisoindolin-5-yl)piperidin-4-yl)piperazine-1-carbonyl)benzyl)-1H-pyrazol-3-yl)benzonitrile] the same measures were −1%, −12%, 8% and 93%.
